# According to the supplement of paper PMC10307832:
# Key:
# Test in all cases: relative viability (nuclei count vs DMSO), 5 days (fraction); higher = more cells survive
# 201T = tested on: 201T
# Summary of the method: (§1)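 Relative viability was taken as the ratio of nuclei in treated wells to nuclei in vehicle wells. Lung cancer cell lines in 1536-well plates received compounds by pin tool one day after seeding, either one drug alone or a fixed anchor-drug dose plus five library-drug doses (not always all listed) in √10 steps. Nuclei were counted on 4× images after 5 days of treatment, and values are medians of duplicate plates.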
# BEN = tested on: BEN
# Summary of the method: as §1
# COR-L 105 = tested on: COR-L 105
# Summary of the method: as §1
# EMC-BAC-2 = tested on: EMC-BAC-2
# Summary of the method: as §1
# H3255 = tested on: H3255
# Summary of the method: as §1
# HARA = tested on: HARA
# Summary of the method: as §1
# HCC-78 = tested on: HCC-78
# Summary of the method: as §1
# HOP-62 = tested on: HOP-62
# Summary of the method: as §1
# LC-2-ad = tested on: LC-2-ad
# Summary of the method: as §1
# LOU-NH91 = tested on: LOU-NH91
# Summary of the method: as §1
# LU99A = tested on: LU99A
# Summary of the method: as §1
# LXF-289 = tested on: LXF-289
# Summary of the method: as §1
# NCI-H1395 = tested on: NCI-H1395
# Summary of the method: as §1
# NCI-H1563 = tested on: NCI-H1563
# Summary of the method: as §1
# NCI-H1993 = tested on: NCI-H1993
# Summary of the method: as §1
# NCI-H2087 = tested on: NCI-H2087
# Summary of the method: as §1
# NCI-H2126 = tested on: NCI-H2126
# Summary of the method: as §1
# NCI-H2170 = tested on: NCI-H2170
# Summary of the method: as §1
# NCI-H650 = tested on: NCI-H650
# Summary of the method: as §1
# RERF-LC-KJ = tested on: RERF-LC-KJ
# Summary of the method: as §1
# SK-MES-1 = tested on: SK-MES-1
# Summary of the method: as §1
# UMC-11 = tested on: UMC-11
# Summary of the method: as §1
smiles,measurement,setting,value
CCNC(=O)c1noc(-c2cc(C(C)C)c(O)cc2O)c1-c1ccc(CN2CCOCC2)cc1 [Luminespib] + CS(=O)(=O)CCNCc1ccc(-c2ccc3ncnc(Nc4ccc(OCc5cccc(F)c5)c(Cl)c4)c3c2)o1 [Lapatinib] (partner 2 µM),relative viability,201T; first compound 0.002 µM,1.03
same,relative viability,201T; first compound 0.006325 µM,0.961
same,relative viability,201T; first compound 0.02 µM,0.878
same,relative viability,201T; first compound 0.06325 µM,1.02
same,relative viability,201T; first compound 0.2 µM,0.986
same,relative viability,BEN; first compound 0.002 µM,0.717
same,relative viability,BEN; first compound 0.006325 µM,0.536
same,relative viability,BEN; first compound 0.02 µM,0.363
same,relative viability,BEN; first compound 0.06325 µM,0.211
same,relative viability,BEN; first compound 0.2 µM,0.237
same,relative viability,COR-L 105; first compound 0.002 µM,0.363
same,relative viability,COR-L 105; first compound 0.006325 µM,0.354
same,relative viability,COR-L 105; first compound 0.02 µM,0.283
same,relative viability,COR-L 105; first compound 0.06325 µM,0.266
same,relative viability,COR-L 105; first compound 0.2 µM,0.302
same,relative viability,EMC-BAC-2; first compound 0.002 µM,0.942
same,relative viability,EMC-BAC-2; first compound 0.006325 µM,0.84
same,relative viability,EMC-BAC-2; first compound 0.02 µM,0.597
same,relative viability,EMC-BAC-2; first compound 0.06325 µM,0.853
same,relative viability,EMC-BAC-2; first compound 0.2 µM,0.781
same,relative viability,H3255; first compound 0.002 µM,0.245
same,relative viability,H3255; first compound 0.006325 µM,0.305
same,relative viability,H3255; first compound 0.02 µM,0.234
same,relative viability,H3255; first compound 0.06325 µM,0.233
same,relative viability,H3255; first compound 0.2 µM,0.25
same,relative viability,HARA; first compound 0.002 µM,0.704
same,relative viability,HARA; first compound 0.006325 µM,0.709
same,relative viability,HARA; first compound 0.02 µM,0.465
same,relative viability,HARA; first compound 0.06325 µM,0.335
same,relative viability,HARA; first compound 0.2 µM,0.259
same,relative viability,HCC-78; first compound 0.002 µM,0.572
same,relative viability,HCC-78; first compound 0.06325 µM,1.32
same,relative viability,HCC-78; first compound 0.2 µM,1.27
same,relative viability,HOP-62; first compound 0.002 µM,1.13
same,relative viability,HOP-62; first compound 0.006325 µM,1.08
same,relative viability,HOP-62; first compound 0.02 µM,0.695
same,relative viability,HOP-62; first compound 0.06325 µM,0.762
same,relative viability,HOP-62; first compound 0.2 µM,0.0994
same,relative viability,LC-2-ad; first compound 0.002 µM,0.928
same,relative viability,LC-2-ad; first compound 0.006325 µM,0.954
same,relative viability,LC-2-ad; first compound 0.02 µM,0.659
same,relative viability,LC-2-ad; first compound 0.06325 µM,0.498
same,relative viability,LC-2-ad; first compound 0.2 µM,0.0905
same,relative viability,LOU-NH91; first compound 0.002 µM,0.791
same,relative viability,LOU-NH91; first compound 0.006325 µM,0.833
same,relative viability,LOU-NH91; first compound 0.02 µM,0.588
same,relative viability,LOU-NH91; first compound 0.06325 µM,0.338
same,relative viability,LOU-NH91; first compound 0.2 µM,0.342
same,relative viability,LU99A; first compound 0.002 µM,1.11
same,relative viability,LU99A; first compound 0.006325 µM,0.939
same,relative viability,LU99A; first compound 0.02 µM,0.518
same,relative viability,LU99A; first compound 0.06325 µM,0.127
same,relative viability,LU99A; first compound 0.2 µM,0.11
same,relative viability,LXF-289; first compound 0.002 µM,0.905
same,relative viability,LXF-289; first compound 0.006325 µM,0.877
same,relative viability,LXF-289; first compound 0.02 µM,1.02
same,relative viability,LXF-289; first compound 0.06325 µM,0.554
same,relative viability,LXF-289; first compound 0.2 µM,0.115
same,relative viability,NCI-H1395; first compound 0.002 µM,1.04
same,relative viability,NCI-H1395; first compound 0.006325 µM,0.996
same,relative viability,NCI-H1395; first compound 0.02 µM,0.645
same,relative viability,NCI-H1395; first compound 0.06325 µM,0.336
same,relative viability,NCI-H1395; first compound 0.2 µM,0.347
same,relative viability,NCI-H1563; first compound 0.002 µM,0.963
same,relative viability,NCI-H1563; first compound 0.006325 µM,0.818
same,relative viability,NCI-H1563; first compound 0.02 µM,0.616
same,relative viability,NCI-H1563; first compound 0.06325 µM,0.474
same,relative viability,NCI-H1563; first compound 0.2 µM,0.528
same,relative viability,NCI-H1993; first compound 0.002 µM,0.874
same,relative viability,NCI-H1993; first compound 0.006325 µM,0.864
same,relative viability,NCI-H1993; first compound 0.02 µM,0.654
same,relative viability,NCI-H1993; first compound 0.06325 µM,0.491
same,relative viability,NCI-H1993; first compound 0.2 µM,0.418
same,relative viability,NCI-H2087; first compound 0.002 µM,1.11
same,relative viability,NCI-H2087; first compound 0.006325 µM,0.954
same,relative viability,NCI-H2087; first compound 0.02 µM,0.726
same,relative viability,NCI-H2087; first compound 0.06325 µM,0.202
same,relative viability,NCI-H2087; first compound 0.2 µM,0.174
same,relative viability,NCI-H2126; first compound 0.002 µM,0.798
same,relative viability,NCI-H2126; first compound 0.006325 µM,0.776
same,relative viability,NCI-H2126; first compound 0.02 µM,0.582
same,relative viability,NCI-H2126; first compound 0.06325 µM,0.647
same,relative viability,NCI-H2126; first compound 0.2 µM,0.526
same,relative viability,NCI-H2170; first compound 0.002 µM,0.254
same,relative viability,NCI-H2170; first compound 0.006325 µM,0.28
same,relative viability,NCI-H2170; first compound 0.02 µM,0.248
same,relative viability,NCI-H2170; first compound 0.06325 µM,0.291
same,relative viability,NCI-H2170; first compound 0.2 µM,0.203
same,relative viability,NCI-H650; first compound 0.002 µM,0.888
same,relative viability,NCI-H650; first compound 0.006325 µM,0.838
same,relative viability,NCI-H650; first compound 0.02 µM,0.507
same,relative viability,NCI-H650; first compound 0.06325 µM,0.0944
same,relative viability,NCI-H650; first compound 0.2 µM,0.149
same,relative viability,RERF-LC-KJ; first compound 0.002 µM,0.825
same,relative viability,RERF-LC-KJ; first compound 0.006325 µM,0.812
same,relative viability,RERF-LC-KJ; first compound 0.02 µM,0.621
same,relative viability,RERF-LC-KJ; first compound 0.06325 µM,0.726
same,relative viability,RERF-LC-KJ; first compound 0.2 µM,0.294
same,relative viability,SK-MES-1; first compound 0.002 µM,0.461
same,relative viability,SK-MES-1; first compound 0.006325 µM,0.459
same,relative viability,SK-MES-1; first compound 0.02 µM,0.407
same,relative viability,SK-MES-1; first compound 0.06325 µM,0.265
same,relative viability,SK-MES-1; first compound 0.2 µM,0.159
same,relative viability,UMC-11; first compound 0.002 µM,0.85
same,relative viability,UMC-11; first compound 0.006325 µM,0.834
same,relative viability,UMC-11; first compound 0.02 µM,0.395
same,relative viability,UMC-11; first compound 0.06325 µM,0.345
same,relative viability,UMC-11; first compound 0.2 µM,0.125
